The subject of experiment [1] is adult female Aedes aegypti mosquitoes. Put plainly: Dual-port olfactometer tests of Example 2: test compound + CS vs CS, and Deet vs inhibitor. It is filed as in vivo. The text has this: A triple cage, dual-port olfactometer, illustrated and described in detail by Posey et al. J. Med. Entomol. 35(3), 330-334 (1998), was used to study the responses of 6 to 8 day old, laboratory-reared adult female Aedes aegypti mosquitoes. This system allows mosquitoes to choose between two different stimuli. The olfactometer is constructed of clear acrylic, comprises three test chambers in a tiered configuration, has paired removable sleeves, and mosquito traps on each chamber, and is equipped with a filtered external air supply system that allows precise temperature (+/−0.5° C.) and relative humidity (+/−2%) control. Only one chamber at a time was used for the tests. Outside air was conditioned prior to entry through the choice ports, the mosquito trap, and the olfactometer by passing through a series of charcoal filters and then heated and humidified, if necessary. One hour before initiation of tests, about 75 female Ae. aegypti mosquitoes were aspirated into the olfactometer chamber and allowed to acclimatize for that one hour before testing. Test compounds were placed into test ports upwind of the traps and olfactometer chamber. A completely randomized design was used for cage position. Competitive tests were conducted. In these competitive tests, the inhibiting compound was placed into one of the ports (treatment port); the second port (check port) had the same apparatus but no chemical inhibiting compound. In these tests, inhibiting compounds were presented in glass Pyrex petri dishes (60×15 mm) that had been cleaned and sterilized in a vacuum oven and then handled only with gloves to minimize any chance of contamination and placed into one port (Treatment Port) along with another petri dish containing 500 μL of Clara Sludge (CS), a synthetic human attractant. The other port (Check Port) contained an untreated petri with no inhibiting compound and a second petri dish containing 500 μL CS. Various concentrations (25, 100, 250, 500 and 1000 μL) of the compounds were used in these tests. Each test was conducted for a period of 3 minutes; the number of mosquitoes trapped in the baited ports, and those remaining in the cage, were counted. The data are then presented as a percentage of total mosquitoes in the cage that were attracted to each port and the percentage of mosquitoes remaining in the cage (i.e., not attracted to either port). Tests identical to that described in Example 1 were conducted with test compounds when employed together with the synthetic human attractant (CS) in a port. The test combinations were: • (1) CS vs. CS (comparison) • (2) dehydrolinalool+CS vs. CS • (3) linalool+CS vs. CS Also for comparison purposes, a known topical mosquito repellent, Deet, namely N,N-diethyl-3-methylbenzamide, was employed to compare to linalool and to dehydrolinalool. Each test compound was tested at 100, 250 and 500 μL. The results are again presented as percent mosquitoes attracted to Ports 1 or 2 or not attracted to either port.

For experiment [2], the system named is Culex nigripalpus. Kind of experiment: Field test, mosquito landing counts on human subject in open area surrounded by linalool dispensers. Format: in vivo. How it is done:
In a further test of the inhibiting ability of the compounds of this invention, the following field test was conducted using linalool as the inhibiting compound. The study was conducted on a site adjacent to a wooded wetland breeding area in Sarasota, Fla. A trap baited with 200 ml/min CO2, equivalent to the respiration of a 91 kg (200 lb) man, ran continuously each night as an experimental control. The trap collections were first used to count the mosquito population and were then examine to identify the species present. The mosquito population was about 91% Culex nigripalpus, the St. Louis encephalitis vector in Florida.
The experimental design was a 2×2 Latin Square. Tests were conducted in two open areas 24 meters (80 feet) apart labeled Locations 1 and 2. Each area was 2.4 meters×2.4 meters (8 ft×8 ft), i.e., 5.76 m^2 (64 ft^2). Wooden poles 1.38 meters (4.5 feet) high and having inhibiting compound dispensers thereon were driven into the ground at the corners of the square area. On alternate nights, one area was unprotected by inhibiting compound while the other area had inhibiting compound dispensed from the dispenser. In operation, the dispenser emitted linalool inhibitor having 95% active ingredient at a rate of 20 mg/hr to 40 mg/hr.
Landing counts were taken from the arms, legs and torso of a test subject known to be moderately attractive to mosquitoes who was seated in the center of the square area. At 15-minute intervals over a period of 2 to 3 hours during peak mosquito activity, the subject changed position, alternating between Locations 1 and 2. […] Mosquitoes were killed to prevent double counting.
On some cue, they emerge en masse from the wooded wetland and fan out in a radial direction foraging for blood hosts. The period of peak activity is evidenced by a sharp increase in landing counts followed by a sharp decrease as the wave of outbound mosquitoes passes the test location. This behavior introduces two variables that must be taken into account. The first affects the experimental design and the second affects the interpretation of the results. […]

Setting [3] is: 100 micro liter, Port 1 Deet vs Port 2 linalool.
The mark [4] stands for this setting: 100 micro liter, Port 1 test compound vs Port 2 human scent.
The mark [5] stands for this setting: 250 micro liter, Port 1 Deet vs Port 2 linalool.
The mark [6] stands for this setting: 250 micro liter, Port 1 test compound vs Port 2 human scent.
Setting [7] is: 500 micro liter, Port 1 Deet vs Port 2 linalool.
Setting [8] is: 500 micro liter, Port 1 test compound vs Port 2 human scent.

In the case of `C=CC(C)(O)CCC=C(C)C` (stereo not drawn) [Linalool, linalool], the results for the “% Mosquitoes Entering Port 2 (linalool)” value in experiment [1] (setting [3]), in experiment [1] (setting [5]) and in experiment [1] (setting [7]) were 17.5%, 25.7% and 23.1%, respectively. The “% Mosquitoes Remaining in Cage” value is reported as 26.2% in experiment [1] (setting [3]); 26.8% in experiment [1] (setting [4]); 26.2% in experiment [1] (setting [5]); 28.4% in experiment [1] (setting [6]); 27.3% in experiment [1] (setting [7]); 18.7% in experiment [1] (setting [8]). Besides, the “% Mosquitoes Entering Port 1 (test compound + CS)” value in experiment [1] (setting [4]) is 22.5%; in experiment [1] (setting [6]), 14.9%; in experiment [1] (setting [8]), 25.7%. The “% Mosquitoes Entering Port 2 (human scent)” value is reported as 50.7% in experiment [1] (setting [4]), 56.8% in experiment [1] (setting [6]) and 55.6% in experiment [1] (setting [8]). The “reduction of mosquito landing counts, average” value in experiment [2] (average over the three trials, linalool dispensed at 20 mg/hr to 40 mg/hr, human subject, 64 ft^2 area) is given as 53%. Further, in experiment [2] (morning trial (7:00 AM to 9:00 AM) when mosquito activity was light), the reduction of landings came to 73%. The “landings on human subject” value in experiment [2] (subject surrounded by linalool dispensed from the dispensers (unprotected: 286 landings)) came out at 135 landings.

Source of the values: patent US7807721B2, “Compositions for inhibiting the scent tracking ability of mosquitoes in environmentally defined three dimensional spaces” (Biosensory Inc., priority 1999, dated 2010).
